In patent EP0326329B1, “Quinazoline derivatives useful as insecticides” (Dow AgroSciences LLC, priority 1988, dated 1989):

Columns and labels:
Format in all cases: in vivo
[1] = system: Erysiphe graminis tritici (powdery mildew); experiment: Greenhouse Test 1, foliar spray fungicide screen (POWD MDEW), host wheat; conditions: disease control rating, 400 ppm (+++ at 100 ppm)
[2] = system: melon aphids (Aphis gossypii Glover); experiment: Mite/insect screen, sprayed squash cotyledons (MA); conditions: Aphis gossypii, percent mortality, read-out: MA RESULTS %; for mortality at 200 ppm: spray rate 200 ppm; for mortality at 400 ppm: spray rate 400 ppm
How it was run: (§1)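 Compounds were dissolved in 50:50 acetone/alcohol containing sulfonate/nonionic emulsifier blends (23 g and 13 g per liter) and diluted with water to test concentrations. Leaves were sprayed on both surfaces to runoff and dried for one hour. Percent mortality and phytotoxicity were scored after standard exposure periods.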

[3] = system: Pyricularia oryzae (rice blast); conditions: disease control rating, foliar spray, host rice; 400 ppm (+++ at 100 ppm)
[4] = system: Botrytis cinerea (gray mold); experiment: Greenhouse Test 1, foliar spray fungicide screen (GRAY MOLD), host grape berries; conditions: disease control rating, 400 ppm (+++ at 100 ppm)
[5] = system: southern armyworm (Spodopetra eridania Cramer); experiment: Mite/insect screen, sprayed squash leaves (SAW); conditions: Spodoptera eridania, percent mortality, read-out: SAW RESULTS %; for mortality at 200 ppm: spray rate 200 ppm; for mortality at 400 ppm: spray rate 400 ppm
How it was run: as §1

[6] = system: Southern corn rootworm (Diabrotica undecimpuctata howardi Barber); experiment: Mite/insect screen, soil treatment (CRW); conditions: Diabrotica, percent mortality, soil treatment, read-out: CRW RESULTS %; for mortality at 12 ppm: CRW rate 12.00 ppm; for mortality at 24 ppm: CRW rate 24.00 ppm
How it was run: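 Compounds dissolved in acetone/alcohol (50:50) with Toximul R/S emulsifiers, diluted with water. Soil (15 g, with presoaked corn seed) treated with 1 mL test solution, dried 6–12 h, then five 2–3 instar larvae added; held at 23°C. Percent mortality and phytotoxicity scored after standard exposure periods.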

[7] = system: Twospotted spider mites (Tetranychus urticae Koch); experiment: Mite/insect screen, sprayed squash cotyledons (SM); conditions: Tetranychus urticae, percent mortality, read-out: SM RESULTS %; for mortality at 200 ppm: spray rate 200 ppm; for mortality at 400 ppm: spray rate 400 ppm
How it was run: as §1

[8] = system: Pseudoperonospora cubensis (downy mildew); experiment: Greenhouse Test 1, foliar spray fungicide screen (DOWN MDEW), host squash; conditions: disease control rating, 400 ppm (+++ at 100 ppm)
[9] = system: Puccinia recondita tritici (leaf rust); experiment: Greenhouse Test 1, foliar spray fungicide screen (LEAF RUST), host wheat; conditions: disease control rating, 400 ppm (+++ at 100 ppm)

Oc1ccc(CCOc2ncnc3ccccc23)cc1 [Example 115, 4-[2-(4-hydroxyphenyl)ethoxy]quinazoline]
POWD MDEW [1]: + (+ = 20-89% control at 400 ppm) | mortality at 200 ppm [2]: 0% | mortality at 400 ppm [2]: 0% | RICE BLAST [3]: + (+ = 20-89% control at 400 ppm) | GRAY MOLD [4]: - (- = 0-19% control at 400 ppm) | mortality at 200 ppm [5]: 0% | mortality at 400 ppm [5]: 0% | mortality at 12 ppm [6]: 0% | mortality at 24 ppm [6]: 0% | mortality at 200 ppm [7]: 0% | mortality at 400 ppm [7]: 0% | DOWN MDEW [8]: + (+ = 20-89% control at 400 ppm) | LEAF RUST [9]: +++ (+++ = 90-100% control at 100 ppm)

CC(COc1ncnc2ccccc12)c1cccc(Oc2ccccc2)c1 (stereo not drawn) [Example 182, 4-[2-(3-phenoxyphenyl)propoxy]quinazoline]
POWD MDEW [1]: ++ (++ = 90-100% control at 400 ppm) | mortality at 200 ppm [2]: 80% | mortality at 400 ppm [2]: 100% | RICE BLAST [3]: - (- = 0-19% control at 400 ppm) | GRAY MOLD [4]: - (- = 0-19% control at 400 ppm) | mortality at 200 ppm [5]: 0% | mortality at 400 ppm [5]: 0% | mortality at 12 ppm [6]: 0% | mortality at 24 ppm [6]: 0% | mortality at 200 ppm [7]: 0% | mortality at 400 ppm [7]: 80% | DOWN MDEW [8]: - (- = 0-19% control at 400 ppm) | LEAF RUST [9]: ++ (++ = 90-100% control at 400 ppm)

CC(C)c1ccc(CCCOc2ncnc3ccccc23)cc1 [Example 143, 4-[3-[4-(1-methylethyl)phenyl]propoxy]quinazoline]
POWD MDEW [1]: + (+ = 20-89% control at 400 ppm) | mortality at 200 ppm [2]: 0% | mortality at 400 ppm [2]: 0% | RICE BLAST [3]: ++ (++ = 90-100% control at 400 ppm) | GRAY MOLD [4]: - (- = 0-19% control at 400 ppm) | mortality at 200 ppm [5]: 80% | mortality at 400 ppm [5]: 0% | mortality at 12 ppm [6]: 0% | mortality at 24 ppm [6]: 0% | mortality at 200 ppm [7]: 0% | mortality at 400 ppm [7]: 0% | DOWN MDEW [8]: ++ (++ = 90-100% control at 400 ppm) | LEAF RUST [9]: - (- = 0-19% control at 400 ppm)

CC(Cc1ccccc1)Oc1ncnc2ccccc12 (stereo not drawn) [Example 18, 4-(1-methyl-2-phenylethoxy)quinazoline]
POWD MDEW [1]: ++ (++ = 90-100% control at 400 ppm) | mortality at 400 ppm [2]: 0% | RICE BLAST [3]: + (+ = 20-89% control at 400 ppm) | GRAY MOLD [4]: - (- = 0-19% control at 400 ppm) | mortality at 400 ppm [5]: 0% | mortality at 24 ppm [6]: 100% | mortality at 400 ppm [7]: 0% | DOWN MDEW [8]: ++ (++ = 90-100% control at 400 ppm) | LEAF RUST [9]: + (+ = 20-89% control at 400 ppm)

CC(C)c1ccc(CCNc2ncnc3cc(Cl)ccc23)cc1 [Example 40, 7-chloro-N-[2-[4-(i-propyl)phenyl]ethyl]-4-quinazolinamine]
POWD MDEW [1]: +++ (+++ = 90-100% control at 100 ppm) | mortality at 200 ppm [2]: 20% | mortality at 400 ppm [2]: 0% | RICE BLAST [3]: ++ (++ = 90-100% control at 400 ppm) | GRAY MOLD [4]: - (- = 0-19% control at 400 ppm) | mortality at 200 ppm [5]: 40% | mortality at 400 ppm [5]: 0% | mortality at 12 ppm [6]: 0% | mortality at 24 ppm [6]: 0% | mortality at 200 ppm [7]: 80% | mortality at 400 ppm [7]: 90% | DOWN MDEW [8]: +++ (+++ = 90-100% control at 100 ppm) | LEAF RUST [9]: +++ (+++ = 90-100% control at 100 ppm)

CC(C)(C)c1ccc(CCCOc2ncnc3c(F)cccc23)cc1 [Example 149, 8-fluoro-4-[3-[4-(1,1-dimethylethyl)phenyl]propoxy]quinazoline]
POWD MDEW [1]: ++ (++ = 90-100% control at 400 ppm) | mortality at 200 ppm [2]: 0% | mortality at 400 ppm [2]: 0% | RICE BLAST [3]: - (- = 0-19% control at 400 ppm) | GRAY MOLD [4]: - (- = 0-19% control at 400 ppm) | mortality at 200 ppm [5]: 0% | mortality at 400 ppm [5]: 0% | mortality at 12 ppm [6]: 0% | mortality at 24 ppm [6]: 0% | mortality at 200 ppm [7]: 0% | mortality at 400 ppm [7]: 0% | DOWN MDEW [8]: - (- = 0-19% control at 400 ppm) | LEAF RUST [9]: - (- = 0-19% control at 400 ppm)

COc1ccc(CCOc2ncnc3c(F)cccc23)cc1 [Example 132, 8-fluoro-4-[2-(4-methoxyphenyl)ethoxy]quinazoline]
POWD MDEW [1]: +++ (+++ = 90-100% control at 100 ppm) | mortality at 200 ppm [2]: 80% | mortality at 400 ppm [2]: 0% | RICE BLAST [3]: +++ (+++ = 90-100% control at 100 ppm) | GRAY MOLD [4]: - (- = 0-19% control at 400 ppm) | mortality at 200 ppm [5]: 0% | mortality at 400 ppm [5]: 0% | mortality at 12 ppm [6]: 0% | mortality at 24 ppm [6]: 0% | mortality at 200 ppm [7]: 20% | mortality at 400 ppm [7]: 0% | DOWN MDEW [8]: +++ (+++ = 90-100% control at 100 ppm) | LEAF RUST [9]: +++ (+++ = 90-100% control at 100 ppm)

Clc1ccc(CCNc2ncnc3ccc(Br)cc23)cc1 [Example 37, N-[2-(4-chlorophenyl)ethyl]-6-bromo-4-quinazolinamine]
POWD MDEW [1]: - (- = 0-19% control at 400 ppm) | mortality at 200 ppm [2]: 0% | mortality at 400 ppm [2]: 0% | RICE BLAST [3]: - (- = 0-19% control at 400 ppm) | GRAY MOLD [4]: - (- = 0-19% control at 400 ppm) | mortality at 200 ppm [5]: 0% | mortality at 400 ppm [5]: 0% | mortality at 12 ppm [6]: 0% | mortality at 24 ppm [6]: 0% | mortality at 200 ppm [7]: 0% | mortality at 400 ppm [7]: 0% | DOWN MDEW [8]: - (- = 0-19% control at 400 ppm) | LEAF RUST [9]: - (- = 0-19% control at 400 ppm)

CCOc1ccc(CCOc2ncnc3c(F)cccc23)cc1 [Example 170, 4-[2-(4-ethoxyphenyl)ethoxy]-8-fluoroquinazoline]
POWD MDEW [1]: +++ (+++ = 90-100% control at 100 ppm) | mortality at 200 ppm [2]: 80% | mortality at 400 ppm [2]: 100% | RICE BLAST [3]: +++ (+++ = 90-100% control at 100 ppm) | GRAY MOLD [4]: - (- = 0-19% control at 400 ppm) | mortality at 200 ppm [5]: 0% | mortality at 400 ppm [5]: 100% | mortality at 12 ppm [6]: 0% | mortality at 24 ppm [6]: 0% | mortality at 200 ppm [7]: 20% | mortality at 400 ppm [7]: 100% | DOWN MDEW [8]: +++ (+++ = 90-100% control at 100 ppm) | LEAF RUST [9]: +++ (+++ = 90-100% control at 100 ppm)

CCc1ccc(CCOc2ncnc3ccccc23)cc1 [Example 65, 4-[2-(4-ethylphenyl)ethoxy]quinazoline]
POWD MDEW [1]: +++ (+++ = 90-100% control at 100 ppm) | mortality at 400 ppm [2]: 100% | RICE BLAST [3]: +++ (+++ = 90-100% control at 100 ppm) | GRAY MOLD [4]: - (- = 0-19% control at 400 ppm) | mortality at 400 ppm [5]: 0% | mortality at 24 ppm [6]: 0% | mortality at 400 ppm [7]: 100% | DOWN MDEW [8]: +++ (+++ = 90-100% control at 100 ppm) | LEAF RUST [9]: +++ (+++ = 90-100% control at 100 ppm)

Fc1cccc2c(OCCc3ccc4ccccc4c3)ncnc12 [Example 66, 8-fluoro-4-[2-(2-naphthyl)ethoxy]quinazoline]
POWD MDEW [1]: +++ (+++ = 90-100% control at 100 ppm) | mortality at 400 ppm [2]: 0% | RICE BLAST [3]: +++ (+++ = 90-100% control at 100 ppm) | GRAY MOLD [4]: - (- = 0-19% control at 400 ppm) | mortality at 400 ppm [5]: 0% | mortality at 24 ppm [6]: 0% | mortality at 400 ppm [7]: 0% | DOWN MDEW [8]: +++ (+++ = 90-100% control at 100 ppm) | LEAF RUST [9]: +++ (+++ = 90-100% control at 100 ppm)

Cc1ccccc1CCOc1ncnc2ccccc12 [Example 103, 4-[2-(2-methylphenyl)ethoxy]quinazoline]
POWD MDEW [1]: + (+ = 20-89% control at 400 ppm) | mortality at 400 ppm [2]: 0% | RICE BLAST [3]: + (+ = 20-89% control at 400 ppm) | GRAY MOLD [4]: - (- = 0-19% control at 400 ppm) | mortality at 400 ppm [5]: 0% | mortality at 24 ppm [6]: 0% | mortality at 400 ppm [7]: 0% | DOWN MDEW [8]: + (+ = 20-89% control at 400 ppm) | LEAF RUST [9]: +++ (+++ = 90-100% control at 100 ppm)

Fc1ccccc1CCOc1ncnc2ccccc12 [Example 48, 4-[2-(2-fluorophenyl)ethoxy]quinazoline]
POWD MDEW [1]: +++ (+++ = 90-100% control at 100 ppm) | mortality at 400 ppm [2]: 100% | RICE BLAST [3]: + (+ = 20-89% control at 400 ppm) | GRAY MOLD [4]: - (- = 0-19% control at 400 ppm) | mortality at 400 ppm [5]: 0% | mortality at 24 ppm [6]: 0% | mortality at 400 ppm [7]: 90% | DOWN MDEW [8]: ++ (++ = 90-100% control at 400 ppm) | LEAF RUST [9]: +++ (+++ = 90-100% control at 100 ppm)

c1ccc(CCOc2ncnc3ccccc23)cc1 [Example 33, 4-(2-phenylethoxy)quinazoline]
POWD MDEW [1]: ++ (++ = 90-100% control at 400 ppm) | mortality at 200 ppm [2]: 80% | mortality at 400 ppm [2]: 100% | RICE BLAST [3]: - (- = 0-19% control at 400 ppm) | GRAY MOLD [4]: - (- = 0-19% control at 400 ppm) | mortality at 200 ppm [5]: 0% | mortality at 400 ppm [5]: 0% | mortality at 12 ppm [6]: 0% | mortality at 24 ppm [6]: 80% | mortality at 200 ppm [7]: 50% | mortality at 400 ppm [7]: 80% | DOWN MDEW [8]: ++ (++ = 90-100% control at 400 ppm) | LEAF RUST [9]: +++ (+++ = 90-100% control at 100 ppm)
